Measured values as given in patent US9409857B2 (SHANGHAI RIGHTHAND PHARMTECH. CO., LTD., priority 2012, dated 2016).
Converted amounts (≈) assume the structure as drawn. “And” between values parts separate entries of the source, which are not always exact repeats. Equal values may be shown once. Read-outs that look alike come from different tables or passages of the source.

How the values were obtained:
[1] = physchem; conditions: thermodynamic from solid
[2] = Determination of stability under accelerated testing condition (HPLC total impurities); format: physicochemical; conditions: (40±2)°C, relative humidity (75±5)%, Batch 1-3 on separate table lines
Procedure: Conditions for chromatogram: octadecyl silane chemically bonded silica was used as a filler; a mixed solution wherein methanol-acetonitrile-phosphate buffer (10 mM/L, pH adjusted to 2.7 with phosphoric acid)=40:20:40 was used as mobile phase; column temperature was 40° C.; detecting wavelength was 220 nm. The purity of each of the products in the above described Example was determined using internal standard method. […] The stability of each of the batches was studied via High Performance Liquid Chromatography (HPLC) and the content percentage of the total related substances (total impurities) was determined in addition to the peaks of Agomelatine and acid radicals.

[3] = pH 7
[4] = Determination of water solubility by external standard method

COc1ccc2cccc(CCNC(C)=O)c2c1 [Agomelatine crystallographic form II, N-[2-(7-methoxyl-1-naphthyl)ethyl]acetamide]
solubility ([1]; pH 7, aqueous buffer): 260 µg/mL (≈ 1070 µM) | solubility ([1]; simulated gastric fluid): 290 µg/mL (≈ 1190 µM) | solubility ([1]; water): 270 µg/mL (≈ 1110 µM)

COc1ccc2cccc(CCNC(C)=O)c2c1.CS(=O)(=O)O [Agomelatine methanesulfonic acid complex]
total impurities % (total related substances) ([2]; time 0 month): 0.21% and 0.22% and 0.24% | total impurities % (total related substances) ([2]; time 1 month): 0.22% and 0.24% | total impurities % (total related substances) ([2]; time 2 months): 0.22% and 0.23% and 0.25% | total impurities % (total related substances) ([2]; time 3 months): 0.23% and 0.25% | total impurities % (total related substances) ([2]; time 6 months): 0.23% and 0.24% and 0.26% | Agomelatine content (solubility) [3]: 0.32 mg/mL

Agomelatine benzenesulfonic acid complex
total impurities % (total related substances) ([2]; time 0 month): 0.11% and 0.12% and 0.14% | total impurities % (total related substances) ([2]; time 1 month): 0.12% and 0.14% | total impurities % (total related substances) ([2]; time 2 months): 0.12% and 0.14% and 0.16% | total impurities % (total related substances) ([2]; time 3 months): 0.14% and 0.16% | total impurities % (total related substances) ([2]; time 6 months): 0.14% and 0.15% and 0.17%

Agomelatine sulfuric acid complex
total impurities % (total related substances) ([2]; time 0 month): 0.11% and 0.12% and 0.14% | total impurities % (total related substances) ([2]; time 1 month): 0.12% and 0.14% | total impurities % (total related substances) ([2]; time 2 months): 0.12% and 0.13% and 0.15% | total impurities % (total related substances) ([2]; time 3 months): 0.13% and 0.15% | total impurities % (total related substances) ([2]; time 6 months): 0.13% and 0.14% and 0.16% | Agomelatine content (solubility) ([4]; pH = 7.0 buffer solution): 0.33 mg/mL | Agomelatine content (solubility) ([4]; pury water): 0.34 mg/mL
